Results: the Kinase Knowledgebase extract (Sharma et al. 2016)

biological target: CDK2 (human) (UniProt P24941); experiment: Enzyme Assay

IC50, < 5 µM:
COc1ncccc1-c1ccnc(Nc2cccc(S(=O)(=O)N3CCCCC3)c2)n1
NS(=O)(=O)c1cccc(Nc2nccc(-c3cccnc3NCCCn3ccnc3)n2)c1
CC(=O)NCCCNc1ncccc1-c1ccnc(Nc2cccc(C#N)c2)n1
Cc1c(-c2ccnc(Nc3cccc(Cl)c3)n2)ccnc1NCCCn1ccnc1
Cc1cnccc1-c1ccnc(Nc2cccc(Cl)c2)n1
COc1cnccc1-c1ccnc(Nc2cccc(S(C)(=O)=O)c2)n1
N#Cc1cccc(Nc2nccc(-c3cccnc3NCCCN)n2)c1
CC(=O)NCCCNc1nccc(-c2ccnc(Nc3cccc(Cl)c3)n2)c1C
NCCCNc1ncccc1-c1ccnc(Nc2cccc(Cl)c2)n1
Nc1cnccc1-c1ccnc(Nc2cccc(Cl)c2)n1
COc1cnccc1-c1ccnc(Nc2cccc(S(N)(=O)=O)c2)n1
CCCCNS(=O)(=O)c1cccc(Nc2nccc(-c3cccnc3OC)n2)c1
Clc1cccc(Nc2nccc(-c3cccnc3NCCCn3ccnc3)n2)c1
CC(=O)NCCCNc1ncccc1-c1ccnc(Nc2cccc(S(N)(=O)=O)c2)n1
CCNS(=O)(=O)c1cccc(Nc2nccc(-c3cccnc3OC)n2)c1
CC(=O)NCC(C)(C)CNc1ncccc1-c1ccnc(Nc2cccc(Cl)c2)n1
COc1ncccc1-c1ccnc(Nc2cccc(C(=O)O)c2)n1
COc1ncccc1-c1ccnc(Nc2cccc(S(C)(=O)=O)c2)n1
CC(=O)NCCCCNc1ncccc1-c1ccnc(Nc2cccc(Cl)c2)n1
COc1ncccc1-c1ccnc(Nc2cccc(C(N)=O)c2)n1
CC(=O)OCCCNc1ncccc1-c1ccnc(Nc2cccc(Cl)c2)n1
Cc1cnc(Nc2cccc(Cl)c2)nc1-c1cccnc1NCCCN
Cc1nccn1CCCNc1ncccc1-c1ccnc(Nc2cccc(Cl)c2)n1
CS(=O)(=O)NCCCNc1ncccc1-c1ccnc(Nc2cccc(Cl)c2)n1
COCCCNc1ncccc1-c1ccnc(Nc2cccc(Cl)c2)n1
COc1ncccc1-c1ccnc(Nc2cccc(NC(C)=O)c2)n1
COc1ncccc1-c1ccnc(Nc2cccc(-c3nncn3C)c2)n1
COc1ncccc1-c1ccnc(Nc2cccc(S(=O)(=O)NCCO)c2)n1
COCCCNc1nccc(-c2ccnc(Nc3cccc(Cl)c3)n2)c1C
Clc1cccc(Nc2nccc(-c3cccnc3NCCCN3CCOCC3)n2)c1
COc1ncccc1-c1ccnc(Nc2cccc(-c3cnco3)c2)n1
OCCCNc1ncccc1-c1ccnc(Nc2cccc(Cl)c2)n1
COc1ncccc1-c1ccnc(Nc2ccc3cn[nH]c3c2)n1
CNCCNc1nccc(-c2ccnc(Nc3cccc(Cl)c3)n2)c1C
COc1ncccc1-c1ccnc(Nc2cccc(C(=O)OC(C)(C)C)c2)n1
CC(C)NCCCNc1ncccc1-c1ccnc(Nc2cccc(Cl)c2)n1
CC(=O)NCCCNc1nccc(-c2ccnc(Nc3cccc([N+](=O)[O-])c3)n2)c1C
CCNC(=O)c1cccc(Nc2nccc(-c3cccnc3OC)n2)c1
NCCCCNc1ncccc1-c1ccnc(Nc2cccc(Cl)c2)n1
CNS(=O)(=O)c1cccc(Nc2nccc(-c3cccnc3OC)n2)c1
CC(=O)NCCCNc1cc(-c2nc(Nc3cccc(Cl)c3)ncc2C)ccn1
CS(=O)(=O)c1cccc(Nc2nccc(-c3cccnc3NCCCN)n2)c1
O=C1CCCN1CCCNc1ncccc1-c1ccnc(Nc2cccc(Cl)c2)n1
COc1ncccc1-c1ccnc(Nc2cccc(C#N)c2)n1
Clc1cccc(Nc2nccc(-c3cccnc3NCCc3c[nH]cn3)n2)c1
CCOC(=O)c1cccc(Nc2nccc(-c3cccnc3OC)n2)c1
CC(=O)NCCNc1ncccc1-c1ccnc(Nc2cccc(Cl)c2)n1
COc1ccc(-c2ccnc(Nc3cccc(S(C)(=O)=O)c3)n2)c(OC)n1
COc1ncccc1-c1ccnc(Nc2cccc(S(N)(=O)=O)c2)n1
Cc1c(-c2ccnc(Nc3cccc(Cl)c3)n2)ccnc1NCCCN1CCOCC1
COc1ncccc1-c1ccnc(Nc2ccc(N3CCN(C)CC3)cc2)n1
Cc1c(-c2ccnc(Nc3cccc(Cl)c3)n2)ccnc1NCc1ccccc1
NCCCNc1ncccc1-c1ccnc(Nc2cccc(S(N)(=O)=O)c2)n1
CN(C)CCCNc1ncccc1-c1ccnc(Nc2cccc(Cl)c2)n1
CC(C)(CN)CNc1ncccc1-c1ccnc(Nc2cccc(Cl)c2)n1
NCCNc1ncccc1-c1ccnc(Nc2cccc(Cl)c2)n1
CC(=O)NCCCNc1ncccc1-c1ccnc(Nc2cccc(Cl)c2)n1
COc1ncccc1-c1ccnc(Nc2cccc(C3CCNCC3)c2)n1
CC(=O)NCCCNc1cc(-c2ccnc(Nc3cccc(Cl)c3)n2)cc(C)n1
Cc1c(-c2ccnc(Nc3cccc(Cl)c3)n2)ccnc1NCCCN1CCCC1=O
COc1cnccc1-c1ccnc(Nc2cccc(Cl)c2)n1
